According to US20080124384A1, “Heteroaryl Substituted Piperazinyl-Pyridine Analogues” (priority 2005, published 2008):

How the values were obtained:
human capsaicin receptor [1] = molecular target: T1, human capsaicin receptor (Homo sapiens, UniProt Q8NER1); assay: Calcium mobilization assay, determination of antagonist activity (Example 6); assay type: cell-based; conditions: cells expressing human capsaicin receptor; capsaicin at its EC50; read-out: IC50 determined as described in Example 6
T1 construct: expressed in transfected cells; host or cells: HEK293 cells stably transfected with pBK-CMV construct
T1 sequence (Q8NER1 whole entry): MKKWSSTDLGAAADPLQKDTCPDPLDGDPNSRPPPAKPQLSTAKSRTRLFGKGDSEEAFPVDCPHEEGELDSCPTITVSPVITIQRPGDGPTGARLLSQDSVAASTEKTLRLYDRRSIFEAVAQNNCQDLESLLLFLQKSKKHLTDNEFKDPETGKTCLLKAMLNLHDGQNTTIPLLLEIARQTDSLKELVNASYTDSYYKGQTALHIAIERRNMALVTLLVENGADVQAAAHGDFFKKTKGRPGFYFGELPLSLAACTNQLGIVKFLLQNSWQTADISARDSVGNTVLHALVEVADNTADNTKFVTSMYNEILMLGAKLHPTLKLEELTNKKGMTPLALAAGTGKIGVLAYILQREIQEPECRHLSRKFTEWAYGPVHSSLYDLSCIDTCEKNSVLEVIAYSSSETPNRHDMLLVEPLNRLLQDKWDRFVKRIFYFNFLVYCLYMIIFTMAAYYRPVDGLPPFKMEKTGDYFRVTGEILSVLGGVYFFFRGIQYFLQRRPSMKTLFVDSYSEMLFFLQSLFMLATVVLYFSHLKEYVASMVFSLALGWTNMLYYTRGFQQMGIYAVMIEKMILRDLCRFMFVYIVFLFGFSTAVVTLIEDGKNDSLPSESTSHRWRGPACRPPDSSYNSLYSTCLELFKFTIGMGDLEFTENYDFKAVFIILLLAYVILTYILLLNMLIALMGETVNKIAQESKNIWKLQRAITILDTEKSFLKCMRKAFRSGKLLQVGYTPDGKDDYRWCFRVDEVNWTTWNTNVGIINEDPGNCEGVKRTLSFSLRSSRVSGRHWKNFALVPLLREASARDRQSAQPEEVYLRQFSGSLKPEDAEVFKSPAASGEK
From the text: A cDNA encoding full length human capsaicin receptor (SEQ ID NO:1, 2 or 3 of U.S. Pat. No. 6,482,611) is subcloned in the plasmid pBK-CMV (Stratagene, La Jolla, Calif.) for recombinant expression in mammalian cells.
Human embryonic kidney (HEK293) cells are transfected with the pBK-CMV expression construct encoding the full length human capsaicin receptor using standard methods. […] Independent clones are isolated from this pool by limiting dilution to obtain clonal stable cell lines for use in subsequent experiments.
This Example illustrates representative calcium mobilization assays for use in evaluating test compounds for agonist and antagonist activity.
(§1) Cells transfected with expression plasmids (as described in Example 4) and thereby expressing human capsaicin receptor are seeded and grown to 70-90% confluency in FALCON black-walled, clear-bottomed 96-well plates (#3904, BECTON-DICKINSON, Franklin Lakes, N.J.). The culture medium is emptied from the 96 well plates and FLUO-3 AM calcium sensitive dye (Molecular Probes, Eugene, Oreg.) is added to each well (dye solution: 1 mg FLUO-3 AM, 440 μL DMSO and 440 μl 20% pluronic acid in DMSO, diluted 1:250 in Krebs-Ringer HEPES (KRH) buffer (25 mM HEPES, 5 mM KCl, 0.96 mM NaH2PO4, 1 mM MgSO4, 2 mM CaCl2, 5 mM glucose, 1 mM probenecid, pH 7.4), 50 μl diluted solution per well). Plates are covered with aluminum foil and incubated at 37° C. for 1-2 hours in an environment containing 5% CO2. After the incubation, the dye is emptied from the plates, and the cells are washed once with KRH buffer, and resuspended in KRH buffer.
To measure the ability of a test compound to agonize or antagonize a calcium mobilization response in cells expressing capsaicin receptors to capsaicin or other vanilloid agonist, the EC50 of the agonist capsaicin is first determined. An additional 20 μl of KRH buffer and 1 μl DMSO is added to each well of cells, prepared as described above. 100 μl capsaicin in KRH buffer is automatically transferred by the FLIPR instrument to each well. […] Data obtained between 30 and 60 seconds after agonist application are used to generate an 8-point concentration response curve, with final capsaicin concentrations of 1 nM to 3 μM.
Test compounds are dissolved in DMSO, diluted in 20 μl KRH buffer so that the final concentration of test compounds in the assay well is between 1 μM and 5 μM, and added to cells prepared as described above. The 96 well plates containing prepared cells and test compounds are incubated in the dark, at room temperature for 0.5 to 6 hours. It is important that the incubation not continue beyond 6 hours. Just prior to determining the fluorescence response, 100 μl capsaicin in KRH buffer at twice the EC50 concentration determined as described above is automatically added by the FLIPR instrument to each well of the 96 well plate for a final sample volume of 200 μl and a final capsaicin concentration equal to the EC50. The final concentration of test compounds in the assay wells is between 1 μM and 5 μM.

human capsaicin receptor [2] = molecular target: T1, human capsaicin receptor; assay: Calcium mobilization assay, agonist response (Example 6); assay type: cell-based; conditions: positive control in the agonist assay; read-out: approximate EC90 concentration
Description: as §1
To measure the ability of a test compound to agonize or antagonize a calcium mobilization response in cells expressing capsaicin receptors to capsaicin or other vanilloid agonist, the EC50 of the agonist capsaicin is first determined. An additional 20 μl of KRH buffer and 1 μl DMSO is added to each well of cells, prepared as described above. 100 μl capsaicin in KRH buffer is automatically transferred by the FLIPR instrument to each well. […]

VR = conditions: typically; no more than moderate affinity; read-out: Ki value (binds to VR); cited from earlier work

SMILES	IC50 (human capsaicin receptor [1]) [µM]	also measured
CC1CCCN1c1nc(-c2ccc(F)cc2)cc(N2CCC(c3nnn[nH]3)CC2)n1 (stereo not shown) [Compound 1, 4-(4-Fluoro-phenyl)-2-(2-methyl-pyrrolidin-1-yl)-6-[4-(1H-tetrazol-5-yl)-piperidin-1-yl]pyrimidine]	< 1	–
CC1CCCN1c1nc(-c2ccc(F)cc2)cc(N2CCN(c3nccn3C)CC2)n1 (stereo not shown) [Compound 2, 4-(4-Fluoro-phenyl)-6-[4-(1-methyl-1H-imidazol-2-yl)-piperazin-1-yl]-2-(2-methyl-pyrrolidin-1-yl)-pyrimidine]	< 1	–
CC1CCCN1c1nc(-c2ccc(F)cc2)cc(N2CCC(c3nccn3C)CC2)n1 (stereo not shown) [Compound 3]	< 1	–
CC1CCCN1c1nc(-c2ccc(F)c(Cl)c2)cc(N2CCN(c3nsnc3Cl)CC2)n1 (stereo not shown) [Compound 4]	< 1	–
C[C@@H]1CCCN1c1nc(-c2ccc(F)c(Cl)c2)cc(N2CCN(c3nccn3C)CC2)n1 [Compound 5, 4-(3-Chloro-4-fluoro-phenyl)-6-[4-(1-methyl-1H-imidazol-2-yl)-piperazin-1-yl]-2-((R)-2-methyl-pyrrolidin-1-yl)-pyrimidine]	< 1	–
COc1cc(CNC(=O)CCCC/C=C/C(C)C)ccc1O [capsaicin]	–	EC90 (human capsaicin receptor [2]): ~0.1 µM
Cl.Cl.Cl.Cl.Cl.Cl.N.N.N.N.N.N.N.N.N.N.N.N.N.N.[O-2].[O-2].[Ru+3].[Ru+3].[Ru+4] [ruthenium red]	–	Ki (VR): ≥ 140 µM
